Results from article PMC4735769 (Cancer Medicine, 2015).

Columns and labels:
pediatric patients = conditions: phase I single-agent pediatric trial; cited from earlier work
[1] = tested on: pediatric patients with relapsed solid tumors; experiment: phase I dose escalation of oral sorafenib and topotecan: toxicity, DLT, MTD; conditions: osteosarcoma patient with prior doxorubicin 450 mg/m^2, on digoxin and lisinopril; cycle 2
Procedure: Intra‐patient dose escalation was not allowed on this study. […] Total daily dose for patients was rounded to the nearest 50 mg tablet size based on patient BSA (a dosing nomogram was used to minimize inter‐patient dosing variability). Patients ingested tablets with clear liquids (2–4 ounces for children <12 and 4 ounces for ≥12 years) and while dispersion in liquid was allowed, all patients swallowed tablets.
The capsules could not be chewed, crushed, or divided and were swallowed whole. […] Vials were dispensed in light protective bags and kept refrigerated. The reconstituted formulation was drawn up in oral syringes to the prescribed volume and administered to the patient immediately after reconstitution.
This dose‐escalation study used a standard 3 + 3 design, with up to six patients being enrolled on a DL. Enrollment to subsequent DLs was determined by the number of enrolled patients, the number with DLTs, and the number at risk for DLTs.
Toxicity was graded according to the Common Terminology Criteria for Adverse Events version 4.0 (http://ctep.cancer.gov). […]

[2] = tested on: pediatric preclinical cell models; conditions: read-out: median IC50; cited from earlier work
[3] = sorafenib plasma pharmacokinetics (LC-MS/MS, noncompartmental); type: in vivo, human
Procedure: Plasma samples were analyzed by protein precipitation. Calibration curves, linear from 5 to 2500 ng/mL with an R ^2 of >0.99, were generated for each run, with patient sample concentrations back‐calculated from the corresponding regression line.
(§1) Plasma concentration‐time data for both drugs were analyzed by noncompartmental methods using Phoenix WinNonlin 6.3 (Pharsight Corp., Mountain View, CA).

[4] = topotecan plasma pharmacokinetics, total and lactone (HPLC fluorescence, noncompartmental); conditions: for T min: total topotecan
Procedure: The calibration curve was linear from 0.125 to 50 ng/mL, with the regression meeting acceptable criteria, with patient samples calculated as described above.
as §1

[5] = Cycle 1, day 28, 150 mg/m^2 (n = 8), steady state, sorafenib alone
[6] = Cycle 1, day 28, 200 mg/m^2 (n = 1), steady state, sorafenib alone
[7] = Cycle 2, day 1, 150 mg/m^2 (n = 6), steady state, with topotecan
[8] = Cycle 2, day 1, 200 mg/m^2 (n = 1), steady state, with topotecan

In the case of CNC(=O)c1cc(Oc2ccc(NC(=O)Nc3ccc(Cl)c(C(F)(F)F)c3)cc2)ccn1 [Sorafenib], the “dose-limiting toxicities (DLTs)” value (pediatric patients) is given as “rash and hypertension”, the “left ventricular ejection fraction on restart of sorafenib” value [1] is given as “ejection fraction again fell to grade 3” and the IC50 [2] is given as 4.3 µM. For the same compound, the C avg [3, 5] was 5400 ± 2600 ng/mL, the C max [3, 5] was 6800 ± 3500 ng/mL and the C min [3, 5] was 2900 ± 2500 ng/mL. For the same compound, the T max [3, 5] was 4.0 ± 3.3 h, the T min [3, 5] was 4.6 ± 3.4 h and the C avg [3, 6] was 7600 ng/mL. It also gave a C min [3, 6] of 4900 ng/mL, a T max [3, 6] of 3 h and a T min [3, 6] of 8 h. The C avg [3, 7] was 4500 ± 3800 ng/mL, the C min [3, 7] was 3100 ± 2800 ng/mL and the T min [3, 7] was 4.3 ± 2.7 h. The C avg [3, 8] was 9800 ng/mL, the C min [3, 8] was 6700 ng/mL and the T min [3, 8] was 5 h. For the same compound, the “dose-normalized AUC, exposure to sorafenib with vs without topotecan” value ([3]; cycle 1 day 28 vs cycle 2 day 1, all dose levels) was “comparable amounts of exposure”.

For CC[C@@]1(O)C(=O)OCc2c1cc1n(c2=O)Cc2cc3c(CN(C)C)c(O)ccc3nc2-1 [Topotecan], the “drug–drug interaction, topotecan PK profiles in presence and absence of sorafenib” value ([4]; cycle 1 day 1 vs cycle 2 day 1) was “no apparent drug–drug interaction”, the T min ([4]; Cycle 1 Day 1 – 1.0 mg/m^2 (n = 3), without sorafenib) was 4.7 (±1.1) h and the T min ([4]; Cycle 2 Day 1 – 1.0 mg/m^2 (n = 3), sorafenib at steady state) was 9.2 (±3.6) h.
